Results on one compound are retold here after ChEMBL document CHEMBL5137010, “N-Acetyl-Cysteinylated Streptophenazines from Streptomyces” (J Nat Prod, 2022).

≈ marks a conversion by molar mass, not a printed value. Bounds are passed on as bounds.

One data set relates to Micrococcus luteus. Kind of data set: Antibacterial activity against Micrococcus luteus L108 assessed as inhibition of bacterial growth at 10 hrs by plate reader analysis. Format: functional.
Another data set has as its system Staphylococcus aureus. Kind of data set: Antibacterial activity against Staphylococcus aureus L100 assessed as inhibition of bacterial growth at 10 hrs by plate reader analysis. Format: functional.
Data set [1] is described as follows: Cytotoxicity against HEK293 cells assessed as reduction in cell viability incubated for 24 hrs by alamar blue assay. Format: toxicity, cell-based. As to conditions: human. (In general: Alamar Blue is a resazurin reagent that responds to reducing activity.)
A further data set concerns Streptococcus pneumoniae. Kind of data set: Antibacterial activity against Streptococcus pneumoniae L44 assessed as inhibition of bacterial growth at 10 hrs by plate reader analysis. Format: functional.
Another data set concerns Enterococcus faecium. The data set can be described thus: Antibacterial activity against Enterococcus faecium L568 assessed as inhibition of bacterial growth at 10 hrs by plate reader analysis. The format is functional.
Another data set concerns Pseudomonas aeruginosa. Kind of data set: Antibacterial activity against Pseudomonas aeruginosa ATCC 27853 assessed as inhibition of bacterial growth at 10 hrs by plate reader analysis. Format: functional.
The nature of data set [2]: Cytotoxicity against human Caco-2 cells assessed as reduction in cell viability incubated for 24 hrs by alamar blue assay. Format: toxicity, cell-based.
Another data set has as its system Escherichia coli. Kind of data set: Antibacterial activity against Escherichia coli L4242 harboring delta tolC mutant assessed as inhibition of bacterial growth at 10 hrs by plate reader analysis. Format: functional.

In general, MIC refers to the smallest concentration in the dilution series that meets the test's criterion for growth inhibition. Usually IC50 stands for the concentration needed to halve the response being measured. For the compound `COC(=O)c1cccc2nc3c([C@@H](SC[C@H](NC(C)=O)C(=O)O)[C@@H](CCCCC(C)C)C(=O)OC)cccc3nc12`, the minimal inhibitory concentration (MIC) with Micrococcus luteus is 68 µM (≈ 39.7 µg/mL); in the data set on Staphylococcus aureus, 43 µM (≈ 25.1 µg/mL); with Streptococcus pneumoniae it was 12 µM (≈ 7 µg/mL); in the data set on Enterococcus faecium, 428 µM (≈ 250 µg/mL); in the data set with Pseudomonas aeruginosa, 428 µM (≈ 250 µg/mL); with Escherichia coli, 291 µM (≈ 170 µg/mL). The IC50 at 24 h in data set [1] is more than 220 µM; in data set [2], 154 µM.
